This note sets out measurements from ChEMBL document CHEMBL1177720, “Selective hexapeptide agonists and antagonists for human complement C3a receptor” (J Med Chem, 2010).

Molecules are shown by their SMILES. pEC50, pIC50: −log10 of the molar value. Active and inactive are the calls of the source. The rule behind the calls is not given here. Numbered stars: 1 amine (or outer) side, 2 acyl side, 3 side chain; on linkers, the order of the positions; unused ones are H or OH. Square brackets hold non-standard residues; d marks the D form. Peptide text beside a SMILES is read from it. Orn(Me) = CN(CCC[C@H](N[*:1])C(=O)[*:2])[*:3]; Cha = N[C@@H](CC1CCCCC1)C(=O)O; Orn = NCCC[C@H](N)C(=O)O

In test [1] the target is T1, C3a anaphylatoxin chemotactic receptor (Homo sapiens, UniProt Q16581).
T1 sequence (Q16581 whole entry): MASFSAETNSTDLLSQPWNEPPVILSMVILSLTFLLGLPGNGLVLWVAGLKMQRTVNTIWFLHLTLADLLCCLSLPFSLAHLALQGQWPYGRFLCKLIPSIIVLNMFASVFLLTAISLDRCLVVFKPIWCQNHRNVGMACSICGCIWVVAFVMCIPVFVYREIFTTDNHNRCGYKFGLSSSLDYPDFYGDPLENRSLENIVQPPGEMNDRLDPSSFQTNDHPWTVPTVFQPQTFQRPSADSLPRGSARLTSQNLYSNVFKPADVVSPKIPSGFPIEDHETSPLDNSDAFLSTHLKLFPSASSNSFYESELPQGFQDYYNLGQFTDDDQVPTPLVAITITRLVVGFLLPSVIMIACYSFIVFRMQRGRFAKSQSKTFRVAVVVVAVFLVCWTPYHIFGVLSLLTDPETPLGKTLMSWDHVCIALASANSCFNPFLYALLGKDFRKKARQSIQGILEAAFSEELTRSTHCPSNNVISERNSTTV
Description: Displacement of [125I-C3a] from C3a receptor in human PBMC by scintillation counting. Conditions: for pIC50: read-out: IC50; for IC50: read-out: pIC50 (converted).

The target of test [2] is T1, C3a anaphylatoxin chemotactic receptor. Description: Agonist activity at human C3a receptor in human U937 cells assessed as induction of intracellular calcium release. Type of test: functional, cell-based, U-937. Conditions: for pEC50: read-out: EC50.
Test [3] addresses T2, C5a anaphylatoxin chemotactic receptor 1 (Homo sapiens, UniProt P21730).
T2 sequence (P21730 whole entry): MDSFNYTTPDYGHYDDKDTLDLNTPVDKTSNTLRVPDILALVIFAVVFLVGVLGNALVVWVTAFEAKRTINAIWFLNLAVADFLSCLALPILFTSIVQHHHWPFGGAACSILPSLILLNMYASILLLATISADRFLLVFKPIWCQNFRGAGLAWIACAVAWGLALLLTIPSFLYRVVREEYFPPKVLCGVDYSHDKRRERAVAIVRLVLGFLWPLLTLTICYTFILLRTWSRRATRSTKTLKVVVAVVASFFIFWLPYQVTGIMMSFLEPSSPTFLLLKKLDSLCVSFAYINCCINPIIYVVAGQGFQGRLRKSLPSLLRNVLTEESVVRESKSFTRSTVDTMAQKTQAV
The test can be described thus: Displacement of [125I-C5a] from C5a receptor in human PBMC by scintillation counting.

Test [4] has as its target T3, C5a anaphylatoxin chemotactic receptor 1 (Homo sapiens) (UniProt P21730).
T3 sequence (whole entry): T2 sequence (P21730 whole entry)
Description: Displacement of […] from C5a receptor in human PBMC at 1 mM by scintillation counting.

For test [5], the target named is T4, C3a anaphylatoxin chemotactic receptor (Homo sapiens) (UniProt Q16581).
T4 sequence (whole entry): T1 sequence (Q16581 whole entry)
The test can be described thus: Agonist activity at human C3a receptor in human U937 cells assessed as induction of intracellular calcium release at 1 mM. Type of test: functional, cell-based. Conditions: U-937.

Test [6] deals with T4, C3a anaphylatoxin chemotactic receptor (Homo sapiens). Description: Agonist activity at human C3a receptor in human U937 cells assessed as induction of intracellular calcium release at 10 uM. Conditions: U-937. Type of test: functional, cell-based.

For the compound `CSCC[C@H](NC(=O)[C@@H]1CCCN1C(=O)[C@H](CCCCN)NC(=O)[C@H](Cc1ccccc1)NC(=O)[C@H](CO)NC(=O)[C@@H](N)Cc1ccc(O)cc1)C(=O)N1CCC[C@H]1C(=O)N[C@@H](CC(C)C)C(=O)N(C)[C@H](C)C(=O)N[C@@H](CCCN=C(N)N)C(=O)O`, the results for the negative-log IC50 (pIC50) in test [1] and in test [3] were 7.89 and 5.70, respectively. Moreover, the pEC50 in test [2] was 6.89.

As for `CSCC[C@H](NC(=O)[C@H](CC(=O)O)N(C)C(=O)[C@H](CCCCN)NC(=O)[C@H](Cc1ccccc1)NC(=O)[C@H](CO)NC(=O)[C@@H](N)Cc1ccc(O)cc1)C(=O)N1CCC[C@H]1C(=O)N[C@@H](CC(C)C)C(=O)N[C@H](C)C(=O)N[C@@H](CCCNC(=N)N)C(=O)O`, the pIC50 in test [1] was 6.13; in test [3], 4.54. In test [2], the pEC50 is 5.85.

In the case of `CC[C@H](C)[C@H](NC(=O)[C@@H](N)Cc1ccccc1)C(=O)N1CCC[C@H]1C(=O)N[C@@H](CC(C)C)C(=O)N[C@@H](C)C(=O)N[C@@H](CCCNC(=N)N)C(=O)O` (H-FIPLAR-OH), in test [1], the pIC50 was 9.74 and the IC50 was 229 nM. Besides, the pEC50 in test [2] was 6.02. Further, the outcome in test [4] was inactive.

Turning to `CC(C)C[C@H](NC(=O)CNC(=O)[C@H](CC(C)C)NC(=O)[C@@H](N)Cc1ccccc1)C(=O)N[C@@H](C)C(=O)N[C@@H](CCCNC(=N)N)C(=O)O` (H-FLGLAR-OH), the negative-log IC50 (pIC50) in test [1] is 6.80. The negative logarithm of the EC50 (pEC50) in test [2] is 6.28. Also, the result in test [4] was inactive.

For the compound `CC(C)C[C@H](NC(=O)[C@@H](NC(=O)[C@H](CC(C)C)NC(=O)[C@@H](N)Cc1ccccc1)[C@@H](C)O)C(=O)N[C@@H](C)C(=O)N[C@@H](CCCNC(=N)N)C(=O)O` (H-FLTLAR-OH), in test [1], the negative logarithm of the IC50 (pIC50) was 7.38. Further, the negative-log EC50 (pEC50) in test [2] is 6.49. Also, in test [4], the result was inactive.

For `CC(C)C[C@H](NC(=O)[C@@H](N)Cc1ccccc1)C(=O)N[C@H](C(=O)N[C@@H](CO)C(=O)N[C@@H](C)C(=O)N[C@@H](CCCNC(=N)N)C(=O)O)[C@@H](C)O` (H-FLTSAR-OH), in test [1], the pIC50 is 5.09. For the same compound, the outcome in test [4] and in test [5] was inactive.

`CC(C)C[C@H](NC(=O)[C@@H]1CCCN1C(=O)[C@H](CCCNC(=N)N)NC(=O)[C@@H](N)Cc1ccccc1)C(=O)N[C@@H](C)C(=O)N[C@@H](CCCNC(=N)N)C(=O)O` (H-FRPLAR-OH): in test [5], the result was inactive.

As for `CC(C)C[C@H](NC(=O)[C@@H]1CCCN1C(=O)[C@H](Cc1c[nH]c2ccccc12)NC(=O)[C@@H](N)Cc1ccccc1)C(=O)N[C@@H](C)C(=O)N[C@@H](CCCNC(=N)N)C(=O)O` (H-FWPLAR-OH), in test [1], the negative-log IC50 (pIC50) was 6.56. For the same compound, the pEC50 in test [2] is 6.24. Besides, the outcome in test [4] was inactive.

As to `CC(C)C[C@H](NC(=O)[C@@H](NC(=O)[C@H](Cc1c[nH]c2ccccc12)NC(=O)[C@@H](N)Cc1ccccc1)[C@@H](C)O)C(=O)N[C@@H](C)C(=O)N[C@@H](CCCNC(=N)N)C(=O)O` (H-FWTLAR-OH), the negative logarithm of the IC50 (pIC50) in test [1] was 7.09. In addition, the negative logarithm of the EC50 (pEC50) in test [2] is 6.43. The outcome in test [4] was inactive.

In the case of `CC(C)C[C@H](NC(=O)[C@@H](NC(=O)[C@H](Cc1ccc(O)cc1)NC(=O)[C@@H](N)Cc1ccccc1)[C@@H](C)O)C(=O)N[C@@H](C)C(=O)N[C@@H](CCCNC(=N)N)C(=O)O` (H-FYTLAR-OH), in test [1], the negative logarithm of the IC50 (pIC50) is 6.78. In test [2], the pEC50 was 5.32. Besides, in test [4], the result was inactive.

Consider `CNCCC[C@H](NC(=O)[C@@H](N)Cc1ccccc1)C(=O)N[C@H](C(=O)N[C@@H](CC(C)C)C(=O)N[C@@H](C)C(=O)N[C@@H](CCCNC(=N)N)C(=O)O)[C@@H](C)O` (H-F[Orn(Me)]TLAR-OH), for which the outcome in test [5] was inactive.

`CC(C)C[C@H](NC(=O)[C@@H]1CCCN1C(=O)[C@H](CCCN)NC(=O)[C@@H](N)Cc1ccccc1)C(=O)N[C@@H](C)C(=O)N[C@@H](CCCNC(=N)N)C(=O)O` (H-F[Orn]PLAR-OH): the result in test [5] was inactive.

Take `CC(C)C[C@H](NC(=O)[C@@H]1CCCN1C(=O)[C@H](CCCCN)NC(=O)[C@@H](N)Cc1cnc[nH]1)C(=O)N[C@@H](C)C(=O)N[C@@H](CCCNC(=N)N)C(=O)O` (H-HKPLAR-OH): the outcome in test [5] was inactive.

As for `CC(C)C[C@H](NC(=O)[C@H](C)NC(=O)[C@H](CC(C)C)NC(=O)[C@@H](N)Cc1cnc[nH]1)C(=O)N[C@@H](C)C(=O)N[C@@H](CCCNC(=N)N)C(=O)O` (H-HLALAR-OH), the outcome in test [6], in test [4] and in test [5] was inactive. Also, the negative logarithm of the IC50 (pIC50) in test [1] is 5.20.

Turning to `CC(C)C[C@H](NC(=O)CNC(=O)[C@H](CC(C)C)NC(=O)[C@@H](N)Cc1cnc[nH]1)C(=O)N[C@@H](C)C(=O)N[C@@H](CCCNC(=N)N)C(=O)O` (H-HLGLAR-OH), in test [1], the pIC50 is 5.23. Besides, in test [2], the negative-log EC50 (pEC50) was 5.42. In addition, in test [4], the result was inactive.

With `CC(C)C[C@H](NC(=O)[C@H](CC(=O)O)NC(=O)[C@H](C)NC(=O)[C@H](CC(C)C)NC(=O)[C@@H](NC(=O)[C@H](CC(C)C)NC(=O)[C@@H](N)Cc1cnc[nH]1)[C@@H](C)O)C(=O)N[C@@H](CC(C)C)C(=O)N[C@@H](CS)C(=O)N[C@@H](CS)C(=O)N[C@@H](CC(C)C)C(=O)N[C@@H](CO)C(=O)N[C@@H](CC(C)C)C(=O)N1CCC[C@H]1C(=O)N[C@@H](Cc1ccccc1)C(=O)O` (H-HLTLADLLCCLSLPF-OH), the figures for the negative logarithm of the IC50 (pIC50) in test [1] and in test [3] were 6.60 and 6.25, respectively. Besides, the pEC50 in test [2] is 5.74. In addition, in test [2] (read-out: pEC50 (converted)), the EC50 is 1580 nM.

As to `CC(C)C[C@H](NC(=O)[C@@H](NC(=O)[C@H](CC(C)C)NC(=O)[C@@H](N)CCCNC(=N)N)[C@@H](C)O)C(=O)N[C@@H](C)C(=O)N[C@@H](CCCNC(=N)N)C(=O)O` (H-RLTLAR-OH), the result in test [5] was inactive.

On to `CC(C)C[C@H](NC(=O)[C@@H]1CCCN1C(=O)[C@H](CCCCN)NC(=O)[C@@H](N)Cc1c[nH]c2ccccc12)C(=O)N[C@@H](C)C(=O)N[C@@H](CCCNC(=N)N)C(=O)O` (H-WKPLAR-OH), for which the result in test [5] was inactive.

As for `CC(C)C[C@H](NC(=O)[C@@H]1CCCN1C(=O)[C@@H](N)Cc1c[nH]c2ccccc12)C(=O)N1CCC[C@H]1C(=O)N[C@@H](CCCNC(=N)N)C(=O)O` (H-WPLPR-OH), the result in test [6], in test [4] and in test [5] was inactive. The negative logarithm of the IC50 (pIC50) in test [1] is 4.57. Besides, the IC50 in test [1] was 31600 nM.

On to `CC(C)C[C@H](NC(=O)CNC(=O)[C@H](CC(C)C)NC(=O)[C@H](CCCCN)NC(=O)[C@H](CO)NC(=O)[C@H](C)NC(=O)[C@H](CCCN=C(N)N)NC(=O)[C@H](Cc1ccc(O)cc1)NC(=O)[C@H](CCCCN)NC(=O)[C@H](CCCCN)NC(=O)CNC(=O)[C@H](Cc1c[nH]c2ccccc12)NC(=O)[C@@H](N)Cc1c[nH]c2ccccc12)C(=O)N[C@@H](C)C(=O)N[C@@H](CCCN=C(N)N)C(=O)O` (H-WWGKKYRASKLGLAR-OH), for which the negative logarithm of the IC50 (pIC50) in test [1] is 8.70. The pEC50 in test [2] was 5.89.

Turning to `CC(C)C[C@H](NC(=O)CNC(=O)[C@H](CC(C)C)NC(=O)[C@H](CCCCN)NC(=O)[C@H](CO)NC(=O)[C@H](C)NC(=O)[C@H](CCCNC(=N)N)NC(=O)[C@H](Cc1ccc(O)cc1)NC(=O)[C@H](CCCCN)NC(=O)[C@H](CCCCN)NC(=O)CNC(=O)[C@H](Cc1c[nH]c2ccccc12)NC(=O)[C@@H](N)Cc1c[nH]c2ccccc12)C(=O)N[C@@H](C)C(=O)N[C@@H](CCCNC(=N)N)C(=O)O` (H-WWGKKYRASKLGLAR-OH), the outcome in test [4] was inactive.

With `CC(C)C[C@H](NC(=O)[C@@H](NC(=O)[C@H](Cc1c[nH]c2ccccc12)NC(=O)[C@@H](N)Cc1c[nH]c2ccccc12)[C@@H](C)O)C(=O)N[C@@H](C)C(=O)N[C@@H](CCCNC(=N)N)C(=O)O` (H-WWTLAR-OH), the pIC50 in test [1] was 6.61. In addition, in test [2], the pEC50 is 6.04. The result in test [4] was inactive.

As to `CC(C)C[C@H](NC(=O)[C@@H]1CCCN1C(=O)[C@H](CCCCN)NC(=O)[C@@H](N)CC1CCCCC1)C(=O)N[C@@H](C)C(=O)N[C@@H](CCCNC(=N)N)C(=O)O` (H-[Cha]KPLAR-OH), the result in test [5] was inactive.
